From ChEMBL document CHEMBL1201862, “PubChem BioAssay data set” (2004) come the findings set out here.

Each structure is given as a SMILES string.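 The compound was tested at five concentrations on cells cultured in 96-well plates, with a 48-hour exposure period. Here, GI50 denotes the concentration required for 50% inhibition of growth.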 Activity calls are given as the source filed them. Rule as the data show it: active = GI50 up to about 1.1 µM and inactive = higher.

Holding throughout (test): growth of human tumour cells (NCI), 48 h
The subject of test [1] is M19-MEL.
In test [2] the test system is KM-20L2.
In test [3] the test system is DLD-1.
Test [4] concerns LXFL 529.
For test [5], the system named is DMS-273.
Test [6] relates to XF498.
In test [7] the test system is DMS-114.
Test [8] has as its system HOP-18.

For the compound `COc1cc([C@@H]2c3cc4c(cc3[C@@H](OC(=O)c3cccc(N)c3)C3COC(=O)[C@@H]32)OCO4)cc(OC)c1O` (stereo partly drawn), the GI50 in test [1] was 5.68 µM (inactive); in test [2], 1.41 µM (inactive); in test [3], 12.3 µM (inactive); in test [4] it was 0.76 µM (active); in test [5] it was 0.525 µM (active); in test [6], 0.863 µM (active). Moreover, the GI50 in test [7] was 3.66 µM (inactive).

Regarding `C=CCCn1nc(-c2ccccc2)oc1=O`, the GI50 in test [1], in test [2], in test [3], in test [4], in test [5] and in test [6] was > 100 µM (inactive) each time. In addition, the GI50 in test [8] is > 100 µM (inactive).

In the case of `CCOC(=O)C1(Cc2ccc3ccccc3c2)CCCCCN1` (stereo not drawn), the GI50 in test [1] is 31.1 µM (inactive); in test [2] it was 22.5 µM (inactive); in test [3], 25.9 µM (inactive); in test [4], 34.1 µM (inactive); in test [5], 18.9 µM (inactive); in test [6] it was 16.2 µM (inactive). The values for the GI50 in test [8] and in test [7] were 25.5 µM (inactive) and 26.5 µM (inactive), respectively.

For `CCOC(=O)N1Cc2ccoc2C1`, the GI50 in test [1], in test [2], in test [3], in test [4], in test [5] and in test [8] was > 100 µM (inactive) in each case. Besides, the GI50 in test [7] is > 100 µM (inactive).

For `Cc1cn2c(=O)c3ccccc3nc2s1`, the GI50 in test [1], in test [2], in test [3], in test [4], in test [5] and in test [7] was > 100 µM (inactive) each time.

Turning to `O=C(Nc1nc2ncn(CCOC(=O)c3ccccc3)c2c(=S)[nH]1)c1ccccc1`, the GI50 is 50.4 µM (inactive) in test [1]; > 100 µM (inactive) in test [2]; > 100 µM (inactive) in test [3]; 49.3 µM (inactive) in test [4]; 50.9 µM (inactive) in test [5]; > 100 µM (inactive) in test [8]. The GI50 in test [7] was 64.4 µM (inactive).

Turning to `O=C(CCC(=O)N/N=C/c1ccccc1O)N/N=C/c1ccccc1O`, the GI50 in test [1], in test [2], in test [4], in test [5] and in test [7] was > 100 µM (inactive) in each case.

On to `O=C(COc1ccccc1Cl)N1N=C(c2ccccc2)CC1(O)c1ccccc1` (stereo not drawn), for which the GI50 in test [1] is 19 µM (inactive); in test [2] it was 16.1 µM (inactive); in test [3], 18.5 µM (inactive); in test [4], 17.1 µM (inactive); in test [5], 16.7 µM (inactive); in test [6], 17.6 µM (inactive).

As to `CC(=O)OC12/C(=N/O)CCCCCC1c1ccccc12` (stereo not drawn), the GI50 in test [1] is > 100 µM (inactive); in test [2], > 100 µM (inactive); in test [4], 66.8 µM (inactive); in test [5], > 100 µM (inactive); in test [6], 62.8 µM (inactive); in test [8], > 100 µM (inactive). Besides, the GI50 in test [7] was 41.7 µM (inactive).

Consider `CN=[S+]([O-])(c1ccccc1)c1ccccc1`, for which the GI50 in test [1], in test [2], in test [3], in test [5], in test [6] and in test [8] was > 100 µM (inactive) each time. Also, the GI50 in test [7] was > 100 µM (inactive).

Consider `O=S1(=O)NN=C(NCc2ccc(F)cc2)c2ccccc21`, for which the GI50 was 40.4 µM (inactive) in test [1]; > 100 µM (inactive) in test [2]; 58.5 µM (inactive) in test [3]; 27.7 µM (inactive) in test [4]; 47.1 µM (inactive) in test [5]; 65 µM (inactive) in test [6].
